# Literature values, collected in patent US12544334B2, “Metabolisable pH sensitive polymersomes” (UCL BUSINESS LTD, priority 2018, dated 2026).
# Details: imidazole-bearing acid before conjugation to the cysteine N-terminus
row,Structure (SMILES),pKa
1,O=C(O)Cn1ccnc1 [1H-imidazole-1-acetic acid],6.8
2,O=C(O)Cc1c[nH]cn1 [4-imidazolacetic acid],6.6
